Assay results published in patent US9216999B2, “Substituted pyrrolo[2,3-h][1,6]naphthyridines and compositions thereof as JAK inhibitors” (priority 2011, dated 2015).
Like-named read-outs stand apart in the source and are kept apart here.

Assays:
[1] = biological target: Tyk2 (Homo sapiens (Human), UniProt P29597); assay: Tyk2 enzyme assay (Assay Example^b 1)
[2] = biological target: JAK2 (Homo sapiens (Human), UniProt O60674); assay: JAK2 enzyme assay (Assay Example^b 1)
[3] = biological target: JAK1 (Homo sapiens (Human), UniProt P23458); assay: JAK1 enzyme assay (Assay Example^b 1)
[4] = biological target: JAK3 (Homo sapiens (Human), UniProt P52333); assay: JAK3 enzyme assay (Assay Example^b 1)
JAK3, sequence (P52333 whole entry): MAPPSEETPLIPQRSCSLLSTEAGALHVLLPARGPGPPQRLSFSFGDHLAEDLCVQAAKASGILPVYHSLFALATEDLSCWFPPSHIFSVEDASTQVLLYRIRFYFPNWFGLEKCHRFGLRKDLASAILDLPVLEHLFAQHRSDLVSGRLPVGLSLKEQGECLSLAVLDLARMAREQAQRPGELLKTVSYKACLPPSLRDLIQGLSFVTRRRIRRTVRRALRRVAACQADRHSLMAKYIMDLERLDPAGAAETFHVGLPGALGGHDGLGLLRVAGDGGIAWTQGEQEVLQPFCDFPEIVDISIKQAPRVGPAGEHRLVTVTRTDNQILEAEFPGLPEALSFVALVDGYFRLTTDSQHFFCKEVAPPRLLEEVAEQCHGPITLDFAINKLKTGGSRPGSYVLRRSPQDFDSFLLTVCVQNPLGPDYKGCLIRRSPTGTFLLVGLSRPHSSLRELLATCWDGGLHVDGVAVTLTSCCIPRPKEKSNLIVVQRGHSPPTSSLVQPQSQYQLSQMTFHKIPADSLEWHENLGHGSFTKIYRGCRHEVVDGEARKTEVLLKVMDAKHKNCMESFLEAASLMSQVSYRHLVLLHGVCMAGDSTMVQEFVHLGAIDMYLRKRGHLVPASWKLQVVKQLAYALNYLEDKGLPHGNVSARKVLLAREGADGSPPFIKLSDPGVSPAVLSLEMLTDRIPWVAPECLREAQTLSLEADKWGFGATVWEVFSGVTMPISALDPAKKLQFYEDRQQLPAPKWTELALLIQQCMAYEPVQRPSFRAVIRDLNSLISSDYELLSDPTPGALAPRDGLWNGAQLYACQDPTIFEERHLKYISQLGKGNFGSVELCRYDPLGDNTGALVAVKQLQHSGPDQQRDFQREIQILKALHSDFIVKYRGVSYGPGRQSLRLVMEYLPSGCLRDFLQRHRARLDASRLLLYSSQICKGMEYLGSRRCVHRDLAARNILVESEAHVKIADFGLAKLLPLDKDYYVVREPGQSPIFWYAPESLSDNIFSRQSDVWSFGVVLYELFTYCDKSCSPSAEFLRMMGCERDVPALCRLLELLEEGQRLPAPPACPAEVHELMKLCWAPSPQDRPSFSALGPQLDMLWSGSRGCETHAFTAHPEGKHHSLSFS

[5] = IC50 (μM) TYK2, Table^b 79, ATP 100 μM
[6] = IC50 (μM) JAK2, Table^b 79, ATP 100 μM
[7] = IC50 (μM) JAK1, Table^b 78, ATP 100 μM
[8] = IC50 (μM) JAK3, Table^b 78, ATP 100 μM
[9] = IC50 (μM) TYK2, Table^b 80, ATP 100 μM
[10] = IC50 (μM) JAK2, Table^b 80, ATP 100 μM
[11] = IC50 (μM) JAK1, Table^b 80, ATP 100 μM
[12] = IC50 (μM) JAK3, Table^b 80, ATP 100 μM

Tyk2, sequence (P29597 whole entry): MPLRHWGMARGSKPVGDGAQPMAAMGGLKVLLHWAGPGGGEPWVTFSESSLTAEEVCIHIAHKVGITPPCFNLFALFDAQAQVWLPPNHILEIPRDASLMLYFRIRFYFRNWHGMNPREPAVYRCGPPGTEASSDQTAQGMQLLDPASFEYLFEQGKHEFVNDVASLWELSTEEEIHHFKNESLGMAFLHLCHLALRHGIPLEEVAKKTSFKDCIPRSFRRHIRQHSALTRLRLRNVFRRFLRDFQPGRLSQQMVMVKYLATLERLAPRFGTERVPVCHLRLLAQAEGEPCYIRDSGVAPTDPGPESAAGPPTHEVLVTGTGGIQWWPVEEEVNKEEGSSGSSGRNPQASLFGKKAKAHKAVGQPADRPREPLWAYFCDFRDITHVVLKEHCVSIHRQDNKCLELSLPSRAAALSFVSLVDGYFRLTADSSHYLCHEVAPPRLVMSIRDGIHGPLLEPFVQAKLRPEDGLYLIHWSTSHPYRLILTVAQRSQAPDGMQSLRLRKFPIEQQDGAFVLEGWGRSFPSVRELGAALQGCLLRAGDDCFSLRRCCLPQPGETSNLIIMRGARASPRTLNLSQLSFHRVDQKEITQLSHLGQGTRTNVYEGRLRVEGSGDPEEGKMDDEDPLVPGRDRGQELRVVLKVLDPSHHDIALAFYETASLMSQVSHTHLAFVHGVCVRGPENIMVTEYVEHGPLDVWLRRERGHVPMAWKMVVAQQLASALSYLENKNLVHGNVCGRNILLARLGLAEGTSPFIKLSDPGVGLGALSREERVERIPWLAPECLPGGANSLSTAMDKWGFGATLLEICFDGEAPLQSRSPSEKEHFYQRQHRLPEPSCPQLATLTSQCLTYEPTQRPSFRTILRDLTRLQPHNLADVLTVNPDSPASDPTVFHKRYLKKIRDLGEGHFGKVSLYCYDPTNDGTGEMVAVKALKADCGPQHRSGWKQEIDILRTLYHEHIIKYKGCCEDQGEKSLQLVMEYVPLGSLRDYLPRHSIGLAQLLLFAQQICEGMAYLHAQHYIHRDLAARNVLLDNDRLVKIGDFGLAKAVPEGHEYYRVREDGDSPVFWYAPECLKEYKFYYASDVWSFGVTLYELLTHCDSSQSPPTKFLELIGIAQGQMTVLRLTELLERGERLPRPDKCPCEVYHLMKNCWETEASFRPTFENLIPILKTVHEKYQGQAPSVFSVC

## C[C@@H]1CCN(C(=O)CC#N)C[C@@H]1n1ccc(=O)c2cnc3[nH]ccc3c21 (racemic) [compound 7]
[1]; [5]
  IC50: 0.06 µM
[2]; [6]
  IC50: 0.004 µM
[3]; [7]
  IC50: 0.0017 µM
[4]; [8]
  IC50: 0.0032 µM

## C[C@@H]1CCN(C(=O)CC2CC2)C[C@@H]1n1ccc(=O)c2cnc3[nH]ccc3c21 (racemic) [compound 8]
[1]; [5]
  IC50: 1.5 µM
[2]; [6]
  IC50: 0.075 µM
[3]; [7]
  IC50: 0.026 µM
[4]; [8]
  IC50: 0.041 µM

## C[C@@H]1CCN(C(=O)CC(F)(F)F)C[C@@H]1n1ccc(=O)c2cnc3[nH]ccc3c21 (racemic) [compound 9]
[1]; [5]
  IC50: 0.15 µM
[2]; [6]
  IC50: 0.0094 µM
[3]; [7]
  IC50: 0.004 µM
[4]; [8]
  IC50: 0.01 µM

## C[C@@H]1CCN(S(=O)(=O)CC(F)(F)F)C[C@@H]1n1ccc(=O)c2cnc3[nH]ccc3c21 (racemic) [compound 11]
[2]; [6]
  IC50: 0.033 µM

## C[C@@H]1CCN(Cc2ccccc2)C[C@@H]1n1ccc(=O)c2cnc3[nH]cc(Br)c3c21 (racemic) [compound 21]
[1]; [9]
  IC50: > 1 µM
[2]; [10]
  IC50: 1.3 µM
[3]; [11]
  IC50: 0.56 µM
[4]; [12]
  IC50: 0.82 µM

## C[C@@H]1CCN(Cc2ccccc2)C[C@@H]1n1cc(Br)c(=O)c2cnc3[nH]ccc3c21 (racemic) [compound 24]
[2]; IC50 (μM) JAK2
  IC50: 0.74 µM

## C[C@@H]1CCN(S(=O)(=O)c2cccc(C(F)(F)F)c2)C[C@@H]1n1ccc(=O)c2cnc3[nH]ccc3c21 (racemic) [compound 33]
[2]; IC50 (μM) JAK2
  IC50: 0.12 µM

## C[C@@H]1CCN(Cc2cccc(C#N)c2)C[C@@H]1n1ccc(=O)c2cnc3[nH]ccc3c21 (racemic) [compound 42]
[1]; [9]
  IC50: > 1 µM
[2]; [10]
  IC50: 0.15 µM
[3]; [11]
  IC50: 0.016 µM
[4]; [12]
  IC50: 0.093 µM

## CC1CCN(C(=O)C2CCC(C(C)(C)C)CC2)CC1n1ccc(=O)c2cnc3[nH]ccc3c21 (single isomer, unassigned) [Synthetic Example^b 48a, 1-{1-[4-(tert-Butyl)cyclohexanecarbonyl]-4-methylpiperidin-3-yl}-1H-pyrrolo[2,3-h][1,6]naphthyridin-4(7H)-one]
[1]; [9]
  IC50: > 1 µM
[3]; [11]
  IC50: 0.14 µM
[4]; [12]
  IC50: > 1 µM

## CC1CCN(C(=O)C2CCC(C(C)(C)C)CC2)CC1n1ccc(=O)c2cnc3[nH]ccc3c21 (single isomer, unassigned) [Synthetic Example^b 48b, 1-{1-[4-(tert-Butyl)cyclohexanecarbonyl]-4-methylpiperidin-3-yl}-1H-pyrrolo[2,3-h][1,6]naphthyridin-4(7H)-one]
[1]; read-out: IC50 (μM) TYK2, Table^b 80, ATP 100 μM
  IC50: > 1 µM
[3]; [11]
  IC50: 0.094 µM
[4]; [12]
  IC50: 0.36 µM

## O=c1ccn(C2CCN(Cc3ccc(C(F)(F)F)cc3)CC2)c2c1cnc1[nH]ccc12 [Synthetic Example^b 56, 1-{1-[4-(trifluoromethyl)benzyl]piperidin-4-yl}-1H-pyrrolo[2,3-h][1,6]naphthyridin-4(7H)-one]
[1]; [9]
  IC50: > 1 µM
[2]; [10]
  IC50: 0.24 µM
[3]; [11]
  IC50: 0.019 µM
[4]; [12]
  IC50: > 1 µM

## N#CCC[C@H]1CC[C@H](n2c(=O)[nH]c(=O)c3cnc4[nH]ccc4c32)CC1 [Synthetic Example^b 134, 3-[trans-4-(2,4-Dioxo-2,3,4,7-tetrahydro-1H-pyrrolo[3′,2′:5,6]pyrido[4,3-d]pyrimidin-1-yl)cyclohexyl]propanenitrile]
[1]; IC50 (μM) TYK2, ATP 100 μM
  IC50: 0.032 µM
[3]; IC50 (μM) JAK1, ATP 100 μM
  IC50: 0.002 µM
[4]; IC50 (μM) JAK3, ATP 100 μM
  IC50: 0.81 µM

## N#CCn1c(=O)c2cnc3[nH]ccc3c2n(C2CCCCC2)c1=O [Synthetic Example^b 137, 2-(1-Cyclohexyl-2,4-dioxo-1H-pyrrolo[3′,2′:5,6]pyrido[4,3-d]pyrimidin-3(2H,4H,7H)-yl)acetonitrile]
[1]; IC50 (μM) TYK2, ATP 100 μM
  IC50: > 1 µM
[2]; IC50 (μM) JAK2, ATP 100 μM
  IC50: > 1 µM
[3]; IC50 (μM) JAK1, ATP 100 μM
  IC50: 0.057 µM
[4]; IC50 (μM) JAK3, ATP 100 μM
  IC50: 0.91 µM

## Cn1c(=O)c2cnc3[nH]ccc3c2n(C2CCCCC2)c1=O [Synthetic Example^b 138, 1-cyclohexyl-3-methyl-1H-pyrrolo[3′,2′:5,6]pyrido[4,3-d]pyrimidine-2,4(3H,7H)-dione]
[1]; IC50 (μM) TYK2, ATP 100 μM
  IC50: > 1 µM
[2]; IC50 (μM) JAK2, ATP 100 μM
  IC50: 0.42 µM
[3]; IC50 (μM) JAK1, ATP 100 μM
  IC50: 0.04 µM
[4]; IC50 (μM) JAK3, ATP 100 μM
  IC50: 0.51 µM

## O=c1c2cnc3[nH]ccc3c2n(C2CCCCC2)c(=O)n1CC(F)(F)F [Synthetic Example^b 139, 1-cyclohexyl-3-(2,2,2-trifluoroethyl)-1H-pyrrolo[3′,2′:5,6]pyrido[4,3-d]pyrimidine-2,4(3H,7H)-dione]
[1]; IC50 (μM) TYK2, ATP 100 μM
  IC50: > 1 µM
[3]; IC50 (μM) JAK1, ATP 100 μM
  IC50: 0.1 µM
[4]; IC50 (μM) JAK3, ATP 100 μM
  IC50: > 1 µM

## CC1OCN(C2CCCCC2)c2c1cnc1[nH]ccc21 (centres unmarked) [compound 1]
[1]; [5]
  IC50: 4.1 µM
[3]; [7]
  IC50: 0.38 µM
[4]; [8]
  IC50: 2 µM

## c1cc2c3c(cnc2[nH]1)COCN3C1CCCCC1 [compound 2]
[2]; [6]
  IC50: 1.9 µM
[3]; [7]
  IC50: 0.33 µM

## O=c1ncn(C2CCCCC2)c2c1cnc1[nH]ccc12 [compound 13]
[1]; [5]
  IC50: > 1 µM
[2]; [6]
  IC50: 0.56 µM
[3]; [7]
  IC50: 0.042 µM
[4]; [8]
  IC50: 1.3 µM

## O=C1NCc2cnc3[nH]ccc3c2N1C1CCCCC1 [compound 17]
[1]; [5]
  IC50: 0.093 µM
[2]; [6]
  IC50: 0.02 µM
[4]; [8]
  IC50: 0.69 µM

## O=C1NCc2cnc3[nH]ccc3c2N1C1CCN(S(=O)(=O)Cc2ccccc2)CC1 [compound 60]
[1]; [9]
  IC50: > 1 µM
[2]; [10]
  IC50: 0.48 µM
[3]; [11]
  IC50: 0.35 µM
[4]; [12]
  IC50: > 1 µM

## O=C(Nc1nncs1)N1CCC(N2C(=O)NCc3cnc4[nH]ccc4c32)CC1 [compound 64]
[1]; [9]
  IC50: 0.17 µM
[2]; [10]
  IC50: 0.02 µM
[3]; [11]
  IC50: 0.012 µM

## O=C1NCc2cnc3[nH]ccc3c2N1C1CCN(Cc2cncs2)CC1 [compound 66]
[1]; [9]
  IC50: 0.99 µM
[2]; [10]
  IC50: 0.14 µM
[3]; [11]
  IC50: 0.08 µM

## O=C1NCc2cnc3[nH]ccc3c2N1C1CCNCC1 [compound 68]
[1]; [9]
  IC50: > 1 µM
[2]; [10]
  IC50: 2.4 µM
[3]; [11]
  IC50: 0.5 µM
[4]; [12]
  IC50: 9.1 µM

## O=c1ccn(C2CCN(Cc3ccc(Br)o3)CC2)c2c1cnc1[nH]ccc12 [compound 80]
[1]; [9]
  IC50: 0.24 µM
[2]; [10]
  IC50: 0.02 µM
[4]; [12]
  IC50: 0.34 µM

## O=C(c1ccc(Cl)s1)N1CCC(n2ccc(=O)c3cnc4[nH]ccc4c32)CC1 [compound 87]
[1]; [9]
  IC50: > 1 µM
[2]; [10]
  IC50: 0.38 µM
[3]; [11]
  IC50: 0.025 µM
[4]; [12]
  IC50: > 1 µM

## O=c1[nH]c(=O)n(C2CCN(Cc3ccc(Br)s3)CC2)c2c1cnc1[nH]ccc12 [compound 89]
[1]; IC50 (μM) TYK2, ATP 100 μM
  IC50: > 1 µM
[2]; IC50 (μM) JAK2, ATP 100 μM
  IC50: > 1 µM
[3]; IC50 (μM) JAK1, ATP 100 μM
  IC50: 0.011 µM
[4]; IC50 (μM) JAK3, ATP 100 μM
  IC50: > 1 µM

## O=c1[nH]c(=O)n(C2C3CC4CC2CC(O)(C4)C3)c2c1cnc1[nH]ccc12 (centres unmarked) [compound 104]
[1]; IC50 (μM) TYK2, ATP 100 μM
  IC50: 0.38 µM
[2]; IC50 (μM) JAK2, ATP 100 μM
  IC50: 0.046 µM
[4]; IC50 (μM) JAK3, ATP 100 μM
  IC50: 0.38 µM

## O=c1[nH]c(=O)n(C2C3CC4CC2CC(O)(C4)C3)c2c1cnc1[nH]ccc12 (centres unmarked) [compound 105]
[1]; IC50 (μM) TYK2, ATP 100 μM
  IC50: > 1 µM
[2]; IC50 (μM) JAK2, ATP 100 μM
  IC50: > 1 µM
[4]; IC50 (μM) JAK3, ATP 100 μM
  IC50: > 1 µM

## O=c1ccn(C2C3CC4CC2CC(O)(C4)C3)c2c1cnc1[nH]ccc12 (centres unmarked) [compound 106]
[1]; IC50 (μM) TYK2, ATP 100 μM
  IC50: 0.38 µM
[2]; IC50 (μM) JAK2, ATP 100 μM
  IC50: 0.25 µM
[3]; IC50 (μM) JAK1, ATP 100 μM
  IC50: 0.047 µM
[4]; IC50 (μM) JAK3, ATP 100 μM
  IC50: 0.61 µM

## O=c1ccn(C2C3CC4CC2CC(O)(C4)C3)c2c1cnc1[nH]ccc12 (centres unmarked) [compound 107]
[1]; IC50 (μM) TYK2, ATP 100 μM
  IC50: > 1 µM
[2]; IC50 (μM) JAK2, ATP 100 μM
  IC50: 0.6 µM
[3]; IC50 (μM) JAK1, ATP 100 μM
  IC50: 0.31 µM
[4]; IC50 (μM) JAK3, ATP 100 μM
  IC50: 0.41 µM

## O=c1[nH]c(=O)n(C2CCN(CCN3CCOCC3)CC2)c2c1cnc1[nH]ccc12 [compound 108]
[1]; IC50 (μM) TYK2, ATP 100 μM
  IC50: > 1 µM
[2]; IC50 (μM) JAK2, ATP 100 μM
  IC50: > 1 µM
[3]; IC50 (μM) JAK1, ATP 100 μM
  IC50: 0.37 µM
[4]; IC50 (μM) JAK3, ATP 100 μM
  IC50: > 1 µM

## CC(C)(C)OC(=O)N1CCC(NCCN2CCC(n3c(=O)[nH]c(=O)c4cnc5[nH]ccc5c43)CC2)CC1 [compound 109]
[1]; IC50 (μM) TYK2, ATP 100 μM
  IC50: > 1 µM
[2]; IC50 (μM) JAK2, ATP 100 μM
  IC50: > 1 µM
[3]; IC50 (μM) JAK1, ATP 100 μM
  IC50: 0.92 µM
[4]; IC50 (μM) JAK3, ATP 100 μM
  IC50: > 1 µM

## O=c1[nH]c(=O)n(C2CCN(CCNCC3CC3)CC2)c2c1cnc1[nH]ccc12 [compound 110]
[2]; IC50 (μM) JAK2, ATP 100 μM
  IC50: > 1 µM
[3]; IC50 (μM) JAK1, ATP 100 μM
  IC50: 0.42 µM

## O=CC1CCC(n2c(=O)[nH]c(=O)c3cnc4[nH]ccc4c32)CC1 (centres unmarked) [compound 133]
[1]; IC50 (μM) TYK2, ATP 100 μM
  IC50: 0.41 µM
[3]; IC50 (μM) JAK1, ATP 100 μM
  IC50: 0.012 µM
[4]; IC50 (μM) JAK3, ATP 100 μM
  IC50: > 1 µM

## O=C(CC(F)(F)F)N(CC(F)(F)F)C[C@H]1CC[C@H](n2c(=O)[nH]c(=O)c3cnc4[nH]ccc4c32)CC1 [compound 155]
[2]; IC50 (μM) JAK2, ATP 100 μM
  IC50: 0.055 µM
[3]; IC50 (μM) JAK1, ATP 100 μM
  IC50: 0.0021 µM
